Source: patent US8426447B2, “Spiro-tricyclic ring compounds as beta-secretase modulators and methods of use” (Amgen Inc., priority 2008, dated 2013)

What was measured:
BACE1 [1] = target: T1, BACE1 (Homo sapiens, UniProt P56817); test: In Vitro BACE Cell-based Assay (HEK cell assay): Aβ40 in conditioned medium of cells stably expressing Amyloid Precursor Protein, sandwich ELISA
Summary of the method: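 Read-out is time-resolved fluorescence of Aβ40 in supernatant, captured by pAb40 and detected with biotinylated 6E10 plus Streptavidin-Europium. Cells stably expressing APP received compounds for 24 h over 10 concentrations starting at 100 μM or 10 μM, final DMSO 0.1%.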

BACE1 [2] = target: T1, BACE1; test: In Vitro Enzymatic BACE FRET (Fluorescence Resonance Energy Transfer) Assay; format: biochemical
Summary of the method: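 Fluorescence read-out after Tris addition raises pH to neutrality and ends the reaction. Before that, a peptide substrate carrying fluorophore and quencher across the BACE cleavage site (50 nM) is incubated with enzyme for one hour at pH 4.2 in acetate containing 10% DMSO and sub-micellar genapol.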

[3] = Table III, IC50's in uM ranges, read-out: HEK cell assay
[4] = Table III, IC50's in uM ranges, read-out: BACE1 FRET assay
[5] = Table IV, class symbols, read-out: HEK cell assay
[6] = Table IV, class symbols, read-out: BACE1 FRET assay
[7] = HEK cells, read-out: HEK cell assay
[8] = HEK cell-based assay, Aβ40 in conditioned medium, IC50 class symbols, read-out: HEK cell assay
[9] = in vitro BACE FRET enzyme assay, IC50 class symbols, read-out: BACE1 FRET assay

T1 sequence (P56817 46-501, species assumed): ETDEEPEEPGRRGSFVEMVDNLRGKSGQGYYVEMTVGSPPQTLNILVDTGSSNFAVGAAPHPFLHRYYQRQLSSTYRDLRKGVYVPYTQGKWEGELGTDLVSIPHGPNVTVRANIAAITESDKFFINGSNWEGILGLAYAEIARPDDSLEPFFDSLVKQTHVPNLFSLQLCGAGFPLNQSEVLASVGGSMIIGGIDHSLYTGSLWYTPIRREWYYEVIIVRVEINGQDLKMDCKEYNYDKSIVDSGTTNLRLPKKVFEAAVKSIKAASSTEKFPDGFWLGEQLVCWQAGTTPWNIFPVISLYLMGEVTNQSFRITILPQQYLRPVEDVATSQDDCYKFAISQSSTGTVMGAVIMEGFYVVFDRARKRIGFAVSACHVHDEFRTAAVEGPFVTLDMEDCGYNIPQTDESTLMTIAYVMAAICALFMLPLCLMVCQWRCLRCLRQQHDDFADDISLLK

CC(C)(C)OCCOc1ccc2c(c1)[C@]1(COC(N)=N1)c1cc(-c3cccnc3)ccc1O2 [compound 159] showed an IC50 (BACE1 [1]; [3]) of 0.1 to 1 µM and an IC50 (BACE1 [2]; [4]) of less than 0.1 µM.

Work on NC1=N[C@@]2(CO1)c1cc(-c3cccnc3)ccc1Oc1ncc(-c3cccnc3)cc12 [compound 203] yielded an IC50 (BACE1 [1]; [3]) of 1 to 5 µM and an IC50 (BACE1 [2]; [4]) of 0.1 to 1 µM.

For COC(C)(C)C#Cc1ccc2c(c1)[C@@]1(COC(N)=N1)c1cc(OCC(C)(C)O)ccc1O2 [compound 768], the IC50 (BACE1 [1]; read-out: HEK cell assay) was 0.1 to 1 µM and the IC50 (BACE1 [2]; read-out: BACE1 FRET assay) was 0.1 to 1 µM.

CC(C)(C)C#Cc1cnc2c(c1)[C@]1(COC(N)=N1)c1cc(-c3ccnnc3)ccc1O2 [compound 653] showed an IC50 (BACE1 [1]; [5]) of 0.1 to 1 µM and an IC50 (BACE1 [2]; [6]) of less than 0.1 µM.

CC(C)(F)COc1cnc2c(c1)[C@]1(COC(N)=N1)c1cc(-c3cccnc3F)ccc1O2 [compound 449] showed an IC50 (BACE1 [1]; [7]) of less than 0.1 µM and an IC50 (BACE1 [2]; read-out: BACE1 FRET assay) of less than 0.1 µM.

Compound COc1ccc2c(c1)[C@@]1(COC(N)=N1)c1cc(-c3ccc(OCC4CC4)nc3)cnc1O2 [compound 668] has an IC50 (BACE1 [1]; read-out: HEK cell assay) of 0.1 to 1 µM and an IC50 (BACE1 [2]; read-out: BACE1 FRET assay) of 0.1 to 1 µM.

In the case of CC(C)(C)/C=C/c1ccc2c(n1)[C@]1(COC(N)=N1)c1cc(-c3cccnc3)ccc1O2 [compound 398], the IC50 (BACE1 [1]; [8]) is reported as less than 0.1 µM and the IC50 (BACE1 [2]; [9]) is reported as less than 0.1 µM.

CC(C)(C)C#Cc1cc2c(cn1)Oc1ccc(-c3cncnc3)cc1[C@@]21COC(N)=N1 [compound 512, (5S)-3-(3,3-dimethyl-1-butyn-1-yl)-7-(5-pyrimidinyl)spiro[chromeno[2,3-c]pyridine-5,4′-[1,3]oxazol]-2′-amine] showed an IC50 (BACE1 [1]; [7]) of less than 0.1 µM and an IC50 (BACE1 [2]; read-out: BACE1 FRET assay) of less than 0.1 µM.

In the case of CC(C)(C)OC(=O)Cc1ccc2c(c1)[C@]1(COC(N)=N1)c1cc(-c3cccnc3)ccc1O2 [compound 706], the IC50 (BACE1 [1]; read-out: HEK cell assay) is reported as 0.1 to 1 µM and the IC50 (BACE1 [2]; read-out: BACE1 FRET assay) is reported as 0.1 to 1 µM.

Compound COc1ccc2c(c1)[C@]1(COC(N)=N1)c1cc(C#CC(C)(C)O)cnc1O2 [compound 903] has an IC50 (BACE1 [1]; [5]) greater than 5 µM and an IC50 (BACE1 [2]; [6]) greater than 5 µM.

For CC(=O)c1cc(-c2ccc3c(c2)[C@@]2(COC(N)=N2)c2cc(OCC(C)(C)C)ccc2O3)cs1 [compound 836], the IC50 (BACE1 [1]; [5]) was 1 to 5 µM and the IC50 (BACE1 [2]; [6]) was 1 to 5 µM.

Work on NC1=N[C@@]2(CO1)c1cc(-c3ccccc3)ccc1Oc1ncc(N3C[C@@H]4C[C@H]3CO4)cc12 [compound 454] yielded an IC50 (BACE1 [1]; [7]) of less than 0.1 µM and an IC50 (BACE1 [2]; read-out: BACE1 FRET assay) of less than 0.1 µM.

CC1(C)C=C(c2cc3c(cn2)Oc2ccc(-c4cccnc4F)cc2[C@@]32COC(N)=N2)CCO1 [compound 435] gave an IC50 (BACE1 [1]; HEK cell assay (uM), HEK cells) of less than 0.1 µM and an IC50 (BACE1 [2]; BACE1 FRET assay (uM)) of less than 0.1 µM.

Compound CC(C)(C)COc1ccc2c(n1)[C@]1(COC(N)=N1)c1cc(Br)ccc1O2 [compound 735] has an IC50 (BACE1 [1]; read-out: HEK cell assay) of 1 to 5 µM and an IC50 (BACE1 [2]; read-out: BACE1 FRET assay) of 1 to 5 µM.

Work on COc1ccc2c(c1)[C@]1(COC(N)=N1)c1cc(OC)cnc1O2 [compound 541] yielded an IC50 (BACE1 [1]; [5]) of 1 to 5 µM and an IC50 (BACE1 [2]; [6]) greater than 5 µM.

CC(C)(C)C#Cc1ccc2c(c1)[C@]1(COC(N)=N1)c1nc(-c3cccnc3)ccc1O2 [compound 697] gave an IC50 (BACE1 [1]; read-out: HEK cell assay) of 1 to 5 µM and an IC50 (BACE1 [2]; read-out: BACE1 FRET assay) of 0.1 to 1 µM.

For NC1=N[C@@]2(CO1)c1cc(-c3cccnc3F)ccc1Oc1cnc(C3=CCOCC3)cc12 [Example 294, (S)-3-(3,6-dihydro-2H-pyran-4-yl)-7-(2-fluoropyridin-3-yl)-5′H-spiro[chromeno[2,3-c]pyridine-5,4′-oxazol]-2′-amine], the IC50 (BACE1 [1]; HEK cell assay, Table IV, class symbols) was less than 0.1 µM and the IC50 (BACE1 [2]; BACE1 FRET assay, Table IV, class symbols) was less than 0.1 µM.

For NC1=N[C@@]2(CO1)c1cc(Br)ccc1Oc1ncccc12 [compound 601], the IC50 (BACE1 [1]; [5]) was greater than 5 µM and the IC50 (BACE1 [2]; [6]) was greater than 5 µM.

In the case of CC(C)(C)C#Cc1ccc2c(c1)[C@@]1(COC(N)=N1)c1cc(C#CC(C)(C)C)cnc1O2 [compound 1000], the IC50 (BACE1 [1]; read-out: HEK cell assay) is reported as 0.1 to 1 µM and the IC50 (BACE1 [2]; read-out: BACE1 FRET assay) is reported as less than 0.1 µM.

Compound NC1=N[C@@]2(CO1)c1cc(-c3cc(F)ccc3F)ccc1Oc1ncc(C3=CCOCC3)cc12 [compound 487] has an IC50 (BACE1 [1]; [7]) of less than 0.1 µM and an IC50 (BACE1 [2]; read-out: BACE1 FRET assay) of less than 0.1 µM.

Work on CC1(C)C=C(c2cnc3c(c2)[C@]2(COC(N)=N2)c2cc(-c4cncnc4)ccc2O3)CCO1 [compound 478] yielded an IC50 (BACE1 [1]; [7]) of less than 0.1 µM and an IC50 (BACE1 [2]; read-out: BACE1 FRET assay) of less than 0.1 µM.

Compound Cc1occc1-c1ccc2c(c1)[C@@]1(COC(N)=N1)c1cc(OCC(C)(C)C)ccc1O2 [compound 739] has an IC50 (BACE1 [1]; read-out: HEK cell assay) of 1 to 5 µM and an IC50 (BACE1 [2]; read-out: BACE1 FRET assay) of 0.1 to 1 µM.

For CC(C)(C)COc1ccc2c(c1C#N)[C@]1(COC(N)=N1)c1cc(-c3cccnc3)ccc1O2 [compound 943], the IC50 (BACE1 [1]; read-out: HEK cell assay) was 0.1 to 1 µM and the IC50 (BACE1 [2]; read-out: BACE1 FRET assay) was less than 0.1 µM.

Compound COc1cncc(-c2ccc3c(c2)[C@@]2(COC(N)=N2)c2cc(OCC(C)(C)C)cnc2O3)c1 [compound 383] has an IC50 (BACE1 [1]; [8]) of less than 0.1 µM and an IC50 (BACE1 [2]; [9]) of less than 0.1 µM.

CC(C)(C)COc1ccc2c(c1)[C@]1(COC(N)=N1)c1cc(C3CCCCO3)ccc1O2 (stereo partly shown) [compound 656] was tested, and the IC50 (BACE1 [1]; [5]) was 0.1 to 1 µM and the IC50 (BACE1 [2]; [6]) was less than 0.1 µM.

In the case of NC1=N[C@@]2(CO1)c1cc(-c3ccccc3)ccc1Oc1ncc(N3CCOCC3)cc12 [compound 626], the IC50 (BACE1 [1]; [5]) is reported as less than 0.1 µM and the IC50 (BACE1 [2]; [6]) is reported as less than 0.1 µM.
